From US8084479B2, “Thiazole compounds and methods of use” (Amgen Inc., priority 2006, dated 2011) come the findings set out here.

The target in this experiment is PKBα (Homo sapiens, UniProt P31749). The experiment is described as follows: PKB kinase assay (P33-labeled ATP, peptide substrate, filter plate). In kind it is biochemical. The conditions noted are these: PKBα enzyme (full length or kinase domain with pleckstrin domain deleted). The text has this:
The kinase assay for evaluating PKB activity comprises active PKB enzymes, a PKB specific substrate, and P^33-labeled ATP. […] The phosphorylated substrate was captured by a phosphocellulose membrane filter plate (MLLIPORE) and measured by a Wallac Microbeta liquid scintillation counter (Perkin Elmer).

The structures appear in SMILES notation.

Sequence of PKBα (P31749 118-480 limits assumed): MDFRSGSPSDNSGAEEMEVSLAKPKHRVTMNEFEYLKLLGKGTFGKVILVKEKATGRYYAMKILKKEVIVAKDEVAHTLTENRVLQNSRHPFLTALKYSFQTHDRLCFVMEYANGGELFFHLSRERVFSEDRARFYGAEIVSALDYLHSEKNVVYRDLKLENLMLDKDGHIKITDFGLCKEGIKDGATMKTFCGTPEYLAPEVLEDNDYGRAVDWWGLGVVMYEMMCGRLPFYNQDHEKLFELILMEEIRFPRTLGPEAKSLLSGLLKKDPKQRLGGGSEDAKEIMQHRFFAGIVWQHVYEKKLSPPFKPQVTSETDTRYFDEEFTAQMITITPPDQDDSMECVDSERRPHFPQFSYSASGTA

With `N[C@H](CNc1ncc(-c2ccc3cnccc3c2)s1)Cc1ccc2ccccc2c1` [Example 202, N—((S)-2-amino-3-(naphthalen-2-yl)propyl)-5-(isoquinolin-6-yl)thiazol-2-amine], the IC50 was under 50 nM.
As for `N[C@H](CNc1ncc(-c2nc3ccncc3s2)s1)Cc1ccc(Cl)c(Cl)c1` [Example 97, N—((S)-2-Amino-3-(3,4-dichlorophenyl)propyl)-5-(thiazolo[5,4-c]pyridin-2-yl)thiazol-2-amine], the figure is 50 to 1000 nM.
The same measure for `Nc1noc2ccc(-c3cnc(NC[C@@H](N)Cc4ccc(C(F)(F)F)cc4)s3)cc12` [Example 51, 5-(2-((S)-2-amino-3-(4-(trifluoromethyl)phenyl)propylamino)thiazol-5-yl)benzo[d]isoxazol-3-amine]: 50 to 1000 nM.
As for `N[C@H](CNc1ncc(-c2ccc3c(c2)CC(=O)N3)s1)Cc1ccc(O)cc1` [Example 192, 5-(2-((S)-2-amino-3-(4-hydroxyphenyl)propylamino)thiazol-5-yl)indolin-2-one], the figure is 1000 to 10000 nM; as for `C[C@H](Nc1ncc(-c2ccc3[nH]c(=O)oc3c2)s1)[C@@H](N)Cc1ccc(C(F)(F)F)cc1` [Example 236, 6-(2-((2S,3S)-3-amino-4-(4-(trifluoromethyl)phenyl)butan-2-ylamino)thiazol-5-yl)benzo[d]oxazol-2(3H)-one], 1000 to 10000 nM.
With `CNC(=O)c1nc(NC[C@@H](N)Cc2ccc(C(F)(F)F)cc2)sc1-c1ccc2cnccc2c1` [Example 120, 2-((S)-2-amino-3-(4-(trifluoromethyl)phenyl)-propylamino)-5-(isoquinolin-6-yl)-N-methylthiazole-4-carboxamide], the half-inhibitory concentration (IC50) is under 50 nM.
The same measure for `CNc1cc2cc(-c3cnc(NC[C@@H](N)Cc4ccc(Cl)cc4)s3)ccc2cn1` [Example 139, 6-(2-((S)-2-amino-3-(4-chlorophenyl)propylamino)thiazol-5-yl)-N-methylisoquinolin-3-amine]: under 50 nM; for `N[C@H](CNc1ncc(-c2ccc3cnccc3c2)s1)Cc1ccc(NC(=O)OCc2ccccc2)cc1` [Example 223, Benzyl 4-((S)-2-amino-3-(5-(isoquinolin-6-yl)thiazol-2-ylamino)propyl)phenylcarbamate]: 1000 to 10000 nM.
The same measure for `C[C@@H](c1ccccc1)[C@H](N)CNc1ncc(-c2ccc3[nH]c(=O)oc3c2)s1` [Example 88, 6-(2-((2S,3S)-2-Amino-3-phenylbutylamino)thiazol-5-yl)benzo[d]oxazol-2(3H)-one]: 1000 to 10000 nM; for `N[C@H](CNc1nc(C(=O)N2CCCC2)c(-c2ccc3cnccc3c2)s1)Cc1ccc(C(F)(F)F)cc1` [Example 195, (2-((S)-2-amino-3-(4-(trifluoromethyl)phenyl)propylamino)-5-(isoquinolin-6-yl)thiazol-4-yl)(pyrrolidin-1-yl)methanone]: 1000 to 10000 nM.
The same measure for `N[C@H](CNc1ncc(-c2ccc3[nH]c(=O)oc3c2)s1)Cc1c[nH]c2ccccc12` [Example 39, 6-(2-((S)-2-amino-3-(1H-indol-3-yl)propylamino)thiazol-5-yl)benzo[d]oxazol-2(3H)-one]: 50 to 1000 nM; for `COC(=O)c1nc(NC[C@@H](N)Cc2ccc(C(F)(F)F)cc2)sc1-c1ccc2[nH]c(=O)oc2c1` [Example 124, Methyl 2-((S)-2-Amino-3-(4-(trifluoromethyl)phenyl)propylamino)-5-(2-oxo-2,3-dihydrobenzo[d]oxazol-6-yl)thiazole-4-carboxylate]: under 50 nM.
Compound `N[C@H](CNc1ncc(-c2ccc3[nH]c(=O)oc3c2)s1)Cc1ccc(Cl)cc1` [Example 55, 6-(2-((S)-2-Amino-3-(4-chlorophenyl)propylamino)thiazol-5-yl)benzo[d]oxazol-2(3H)-one] came in with an IC50 of under 50 nM.
`N[C@H](CNc1ncc(-c2ccc3c(c2)CCC(=O)N3)s1)Cc1ccc(C(F)(F)F)cc1` [Example 36, 6-(2-((S)-2-amino-3-(4-(trifluoromethyl)phenyl)propylamino)thiazol-5-yl)-3,4-dihydroquinolin-2(1H)-one] came in with an IC50 of 1000 to 10000 nM.
As for `NC(CNc1ncc(-c2ccc3[nH]c(=O)oc3c2)s1)Cc1ccc(C(F)(F)F)cc1F` (stereo not shown) [Example 178, 6-(2-(-2-amino-3-(2-fluoro-4-(trifluoromethyl)phenyl)propylamino)thiazol-5-yl)benzo[d]oxazol-2(3H)-one], the figure is under 50 nM; as for `N[C@H](CNc1ncc(-c2ccc3[nH]c(=O)oc3c2)s1)Cc1ccc(F)c(F)c1` [Example 127, 6-(2-((S)-2-Amino-3-(3,4-difluorophenyl)propylamino)thiazol-5-yl)benzo[d]oxazol-2(3H)-one], 50 to 1000 nM.
The same measure for `N[C@H](CNc1ncc(-c2ccc3cnccc3c2)s1)Cc1ccc(Cl)c(Cl)c1` [Example 132, N—((S)-2-Amino-3-(3,4-dichlorophenyl)propyl)-5-(isoquinolin-6-yl)thiazol-2-amine]: under 50 nM; for `CC(O)C#Cc1nc(NC[C@@H](N)Cc2ccc(C(F)(F)F)cc2)sc1-c1ccc2c(c1)CC(=O)N2` (stereo partly drawn) [Example 144, 5-(2-((S)-2-amino-3-(4-(trifluoromethyl)phenyl)propylamino)-4-(3-hydroxybut-1-ynyl)thiazol-5-yl)indolin-2-one]: under 50 nM; for `Nc1n[nH]c2ccc(-c3cnc(NC[C@@H](N)Cc4c[nH]c5ccccc45)s3)cc12` [Example 37, 5-(2-((S)-2-amino-3-(1H-indol-3-yl)propylamino)thiazol-5-yl)-1H-indazol-3-amine]: 1000 to 10000 nM.
`CN(C)Cc1nc(NC[C@@H](N)Cc2ccc(C(F)(F)F)cc2)sc1-c1ccc2cnccc2c1` [Example 81, N—((S)-2-Amino-3-(4-(trifluoromethyl)phenyl)propyl)-4-((dimethylamino)methyl)-5-(isoquinolin-6-yl)thiazol-2-amine] came in with a half-inhibitory concentration (IC50) of 50 to 1000 nM.
As for `N[C@H](CNc1nc(C#CCO)c(-c2ccc3cnccc3c2)s1)Cc1ccc(C(F)(F)F)cc1` [Example 140, 3-(2-((S)-2-amino-3-(4-(trifluoromethyl)phenyl)propylamino)-5-(isoquinolin-6-yl)thiazol-4-yl)prop-2-yn-1-ol], the figure is under 50 nM.
The same measure for `N[C@H](CNc1nc(C2CC2)c(-c2ccc3cnccc3c2)s1)Cc1ccc(C(F)(F)F)cc1` [Example 169]: 50 to 1000 nM; for `N[C@H](CNc1nc(-c2ccc(F)cc2)c(-c2ccc3cnccc3c2)s1)Cc1ccc(C(F)(F)F)cc1` [Example 102, N—((S)-2-Amino-3-(4-(trifluoromethyl)phenyl)propyl)-4-(4-fluorophenyl)-5-(isoquinolin-6-yl)thiazol-2-amine]: 50 to 1000 nM.
As for `COc1cc(C[C@H](N)CNc2ncc(-c3ccc4c(c3)CC(=O)N4)s2)ccc1C(F)(F)F` [Example 206, 5-(2-((S)-2-amino-3-(3-methoxy-4-(trifluoromethyl)phenyl)propylamino)thiazol-5-yl)indolin-2-one], the figure is under 50 nM; as for `N[C@H](CNc1ncc(-c2ccc3c(c2)/C(=C\c2cnc[nH]2)C(=O)N3)s1)Cc1c[nH]c2ccccc12` (stereo in doubt) [Example 73, (E)-3-((1H-imidazol-5-yl)methylene)-6-(2-((S)-2-amino-3-(1H-indol-3-yl)propylamino)thiazol-5-yl)indolin-2-one ditrifluoroacetates], 50 to 1000 nM; as for `N[C@H](CNc1nc(C(F)(F)CO)c(-c2ccc3cnccc3c2)s1)Cc1ccc(C(F)(F)F)cc1` [Example 134, 2-(2-((S)-2-Amino-3-(4-(trifluoromethyl)phenyl)-propylamino)-5-(isoquinolin-6-yl)thiazol-4-yl)-2,2-difluoroethanol], 50 to 1000 nM.
In turn, `CN(C)C(=O)c1nc(NC[C@@H](N)Cc2ccc(C(F)(F)F)cc2)sc1-c1ccc2cnccc2c1` [Example 194, 2-((S)-2-amino-3-(4-(trifluoromethyl)phenyl)propylamino)-5-(isoquinolin-6-yl)-N,N-dimethylthiazole-4-carboxamide] showed a 50% inhibitory concentration (IC50) of 50 to 1000 nM.
The same measure for `COCc1nc(NC[C@@H](N)Cc2ccc(C(F)(F)F)cc2)sc1-c1ccc2cnccc2c1` [Example 13, N—((S)-2-amino-3-(4-(trifluoromethyl)phenyl)propyl)-5-(isoquinolin-6-yl)-4-(methoxymethyl)thiazol-2-amine]: under 50 nM; for `CNc1cc2cc(-c3cnc(NC[C@@H](N)Cc4ccc(C(F)(F)F)cc4)s3)ccc2cn1` [Example 138, 6-(2-((S)-2-amino-3-(4-(trifluoromethyl)phenyl)propylamino)thiazol-5-yl)-N-methylisoquinolin-3-amine]: under 50 nM; for `N[C@H](CNc1ncc(-c2ccc3[nH]c(=O)oc3c2)s1)[C@@H](CO)c1ccc(C(F)(F)F)cc1` [Example 160, 6-(2-((2S,3S)-2-amino-4-hydroxy-3-(4-(trifluoromethyl)phenyl)butylamino)thiazol-5-yl)benzo[d]oxazol-2(3H)-one]: under 50 nM.
The same measure for `N[C@H](CNc1ncc(-c2ccc3c(c2)CC(=O)N3)s1)Cc1ccc(Cl)c(F)c1` [Example 86, 5-(2-((S)-2-Amino-3-(4-chloro-3-fluorophenyl)propylamino)thiazol-5-yl)indolin-2-one]: under 50 nM.
The same measure for `N[C@H](CNc1ncc(-c2ccc3cncnc3c2)s1)Cc1ccc(C(F)(F)F)cc1` [Example 253, N—((S)-2-Amino-3-(4-(trifluoromethyl)phenyl)propyl)-5-(quinazolin-7-yl)thiazol-2-amine]: under 50 nM.
The compound `N[C@H](CNc1ncc(-c2ccc3cnccc3n2)s1)Cc1ccc(C(F)(F)F)cc1` [Example 68, N—((S)-2-amino-3-(4-(trifluoromethyl)phenyl)propyl)-5-(1,6-naphthyridin-2-yl)thiazol-2-amine] gave a half-inhibitory concentration (IC50) of under 50 nM.
As for `COc1ccc(C[C@H](N)CNc2ncc(-c3ccc4[nH]c(=O)oc4c3)s2)cc1` [Example 78, 6-(2-((S)-2-amino-3-(4-methoxyphenyl)propylamino)thiazol-5-yl)benzo[d]oxazol-2(3H)-one], the figure is 50 to 1000 nM.

One may read the IC50 as the midpoint of a concentration-inhibition curve.
